Laboratory results as given in patent US10317393B2, “Alkynyl sugar analogs for labeling and visualization of glycoconjugates in cells” (Academia Sinica, priority 2007, dated 2019).

Legend:
Jurkat cells [1] = test: Cell growth analysis after treatment with sugar analogs (cell numbers counted); format: cell-based, human; settings: for toxicity (growth rate): 3 days
Method: FIGS. 1A, 1B, 1C and 1D show analysis of cells labeled with Fuc analogs. […] Jurkat cells were grown in the presence of 200 micromolar each Fuc analog for 3 days before cell numbers were counted. The data represent the percentage of treated cells vs. untreated cells (n=4).
It is also disclosed how treatment with exogenous Fuc analog affects cell growth rate. […] In contrast, the addition of 200 micromolar azido Fuc 2 inhibits cell growth considerably, by 65% when compared with the untreated cells. […] Such toxicity may lead to global change in expression, therefore a nontoxic probe is preferable for accurate probing of glycoconjugate expression.
(§1) Jurkat cells were cultivated (2×10^6/10 ml) in RPMI medium 1640 supplemented with 10% FCS and various concentrations of peracetylated alkynyl sugars 1, 2, or 4 or native sugars 3 or 5, for 1-3 days at 37° C. Cells were then harvested, washed with 0.1% FCS/PBS, and resuspended (10^6 cells) in 100 microliters of click reaction solution (0.1 mM biotin probe 6 or fluorogenic probe 7/0.1 mM Tris-thiazoleamine catalyst/0.1 mM CuSO4/0.5 mM sodium ascorbate, in PBS). The reaction was incubated at room temperature for 30 min, and then the cells were washed twice with 0.1% FCS/PBS. Cells treated with biotin probe 6 were subsequently stained with fluorescein-conjugated streptavidin (0.5 microgram per sample in 50 microliters of 1% FCS/PBS) for 30 min at 4° C., and washed three times with 1% FCS/PBS. Data were acquired by BD LSR II with FACSDiva software, and were analyzed by CellQuestPro software (BD Biosciences). Detection of fluorescent adduct with probe 7 was monitored with a 408 nm laser and a 440/40 bandpass filter for excitation and emission, respectively.

Jurkat cells [2] = test: Flow cytometry of cell surface labeling after click with biotin azide probe 6 and fluorescein-conjugated streptavidin; format: cell-based, human
Method: In another exemplary implementation, a method for labeling fucosylated glycoconjugates at the cell surface is disclosed. In one aspect, Jurkat cells are grown in the presence of derivatized alkynyl Fuc 1. After treatment, cells are subjected to CuAAC (click chemistry) to couple biotinylated azido probe 6 with any alkynyl Fuc-bearing glycoconjugates, and stained with fluorescein-conjugated streptavidin.
Labeling alkynyl Fuc-bearing cell surface glycoconjugates is illustrated in FIGS. 1A, 1B, 1C and 1D. FIGS. 1A, 1B, 1C and 1D show analysis of cells tagged with Fuc analogs analyzed by monitoring fluorescence intensity with flow cytometry after labeling with a biotin azide probe 6 and staining cells with fluorescein-conjugated streptavidin. […] Without being bound by theory, incorporation of the derivatized Fuc analogs into fucosylated glycoconjugates likely occurs via the Fuc salvage pathway.
It is now disclosed in one exemplary implementation of the disclosure that treating cells with derivatized alkynyl ManNAc 4 results in derivatized alkyne-bearing sialyl glycoconjugates. In one aspect of the method, cells are treated with 4 at various concentrations for one to 3 days. Modified sugar analogs and probes used in this disclosure are shown in Scheme 1. Tagging of the cell surface glycoconjugates by derivatized alkynyl ManNAc is illustrated in FIGS. 2A, 2B, 2C and 2D. FIGS. 2A, 2B, 2C and 2D show analysis of cells labeled with ManNAc analogs analyzed by monitoring fluorescence intensity with flow cytometry after clicking on the biotin azide probe 6 and staining cells with fluorescein-conjugated streptavidin. […] Compared with the MFI of controls, there was significant labeling on cells treated with derivatized alkynyl ManNAc 4, even at concentrations as low as 3 micromolar (15-fold increase). […] The optimal concentration of 4 for tagging sialyl glycoconjugates falls between 25 and 50 micromolar.
as §1

Jurkat cells [3] = test: Flow cytometry of cell surface labeling with fluorogenic coumarin probe 7; format: cell-based, human; settings: 200 micromolar Fuc analogs or 25 micromolar ManNAc analogs, 3 days
Source text: FIGS. 3A and 3B show tagging of cell surface glycans by derivatized alkynyl sugar analogs and subsequent labeling with probe 3-azido-7-hydroxycoumarin 7. Shown is flow cytometry analysis of Jurkat cells tagged with 200 micromolar derivatized alkynyl Fuc 1 shown in FIG. 3A or 25 micromolar alkynyl-derivatized ManNAc 4 shown in FIG. 3B for 3 days. The fluorescence intensity was detected after labeling with a coumarin probe 7. Filled histogram, cells treated with control sugar analog 3 or 5; open histogram, cell treated with alkynyl-derivatized sugar 1 or 4.
Recently, another click-activated azido-derivatized fluorescent probe, based on coumarin, was reported in the literature. In one aspect of the disclosure, the fluorogenic probe, 3-azido-7-hydroxycoumarin 7, is used as the coupling partner for alkynyl tags on labeled glycoconjugates.
Jurkat cells were cultivated (2×10^6/10 ml) in RPMI medium 1640 supplemented with 10% FCS and various concentrations of peracetylated alkynyl sugars 1, 2, or 4 or native sugars 3 or 5, for 1-3 days at 37° C. […] Data were acquired by BD LSR II with FACSDiva software, and were analyzed by CellQuestPro software (BD Biosciences). Detection of fluorescent adduct with probe 7 was monitored with a 408 nm laser and a 440/40 bandpass filter for excitation and emission, respectively.

cell extracts = test: Labeling and detection of glycoconjugates in cell extracts (SDS/PAGE, Western blot); format: cell-based; settings: 200 micromolar Fuc or 25 micromolar ManNAc analogs, 3 days
Source text: Because the herein disclosed labeling system enables the identification of cellular glycoconjugates, it can also serve well in glyco-proteomic applications aimed at discovering unknown glycosylated targets for diagnostic and therapeutic purposes. […] Soluble lysate fractions are labeled with biotin probe 6, fluorogenic probe 7, or a standard azido-derivatized rhodamine probe used in proteomics before separating proteins by SDS/PAGE. […] Positive fluorescent signal was also detected in alkynyl positive protein lysate when labeled with fluorogenic 3-azido-7-hydroxycoumarin 7 and rhodamine probes (FIG. 6B and FIG. 11). […] Moreover, further processing, including a streptavidin/avidin enrichment or gel slice purification, will allow for comparative identification by proteomic mass spectrometry techniques of unknown glycoconjugates expressed at different cell status, for instance, un-differentiated verses differentiated cells, or normal verses cancer cells.
Cells were seeded at 3×10^6/8 ml per 10-cm dish and treated with control and test sugars (200 micromolar Fuc 3 vs. alkynyl derivatized Fuc 1, or 25 micromolar ManNAc 5 vs. alkynyl derivatized ManNAc 2) in growth medium at 37° C. […] Signal was developed with SuperSignal Chemiluminescent Substrate and detected by exposure to x-ray film. […] Rhodamine gels were analyzed.

With `C#CCCC(=O)N[C@@H]1C(OC(C)=O)O[C@H](COC(C)=O)[C@@H](OC(C)=O)[C@@H]1OC(C)=O` (some centres unmarked) [alkynyl ManNAc 4, 1,3,4,6-tetra-O-acetyl-N-4-pentynoylmannosamine] the “toxicity (growth rate)” value (Jurkat cells [1]; above 100 micromolar) was “more toxic”, the “toxicity to cells (summary statement)” value (Jurkat cells [1]; at levels required for efficient labeling) was “not toxic” and the “toxicity (growth rate)” value (Jurkat cells [1]; between 25 and 50 micromolar) was “little or no toxicity”. The “increase of MFI compared with controls” value (Jurkat cells [2]; 3 micromolar) was 15 fold, the “dose dependency of glycan tagging” value (Jurkat cells [2]; 3 days) was “Dose-dependent labeling” and the “fluorescence intensity / cell surface signal compared with control sugar-treated cells” value (Jurkat cells [2]; biotin probe 6/fluorescein-streptavidin) was “specific signal on the cell surface”. The “fluorescent labeling after reacting with 3-azido-7-hydroxycoumarin probe” value (Jurkat cells [3]) was “significant fluorescent labeling” and the “labeling signal in proteins by Western blot or fluorescence” value (cell extracts) was “specific biotin-labeling signals”.
